Earlier results as cited in patent US20160185712A1, “PHOTO-ACTIVATED HYDROGELS” (L'OREAL, priority 2014, published 2016).

## O=C1c2ccccc2C(=O)c2cc(S(=O)(=O)[O-])ccc21.[Na+] [anthraquinone-2-sulfonic acid sodium salt]
  water solubility: water soluble
